Assay results published in article PMC4254530 (Bioorganic & medicinal chemistry, 2014).

What was measured:
[1] = biological target: full length hCDK5/p25 (Homo sapiens, UniProt Q00535); test: γ-33P ATP filter binding assay, hCDK5/p25; type: biochemical; conditions: for IC50: CDK5/p25 IC50, ATP (Km) 30 μM, Table 5; for inhibition at 50 µM: read-out: CDK5/p25 inhibition @50μM
[2] = biological target: KDR/VEGFR2 (Homo sapiens, UniProt P35968); test: Kinase selectivity assay KDR/VEGFR2; type: biochemical; conditions: read-out: KDR/VEGFR2 % inhibition at 20 μM
[3] = biological target: T1, PKCε (Homo sapiens, UniProt Q02156); test: Kinase selectivity assay PKCε; type: biochemical; conditions: read-out: PKCε % inhibition at 20 μM
T1 sequence (Q02156 1-737): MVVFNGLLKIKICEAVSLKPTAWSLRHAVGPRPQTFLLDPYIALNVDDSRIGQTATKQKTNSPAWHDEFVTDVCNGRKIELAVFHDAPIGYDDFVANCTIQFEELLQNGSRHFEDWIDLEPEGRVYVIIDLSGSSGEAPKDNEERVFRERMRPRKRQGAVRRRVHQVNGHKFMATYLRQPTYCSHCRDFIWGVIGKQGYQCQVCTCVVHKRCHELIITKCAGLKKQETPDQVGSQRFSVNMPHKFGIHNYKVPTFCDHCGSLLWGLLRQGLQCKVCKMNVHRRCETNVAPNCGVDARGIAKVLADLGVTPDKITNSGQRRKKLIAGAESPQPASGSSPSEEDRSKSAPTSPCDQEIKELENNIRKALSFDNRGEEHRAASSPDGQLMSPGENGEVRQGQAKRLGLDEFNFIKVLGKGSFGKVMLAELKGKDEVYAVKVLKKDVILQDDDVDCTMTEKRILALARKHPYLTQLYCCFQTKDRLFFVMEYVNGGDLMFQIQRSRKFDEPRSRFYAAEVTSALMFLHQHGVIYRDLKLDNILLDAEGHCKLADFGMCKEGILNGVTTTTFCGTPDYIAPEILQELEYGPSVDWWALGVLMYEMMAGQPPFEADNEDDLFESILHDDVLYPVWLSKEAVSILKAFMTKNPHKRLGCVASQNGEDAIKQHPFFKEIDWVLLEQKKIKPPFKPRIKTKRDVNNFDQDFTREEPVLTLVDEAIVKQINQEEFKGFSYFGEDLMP

[4] = biological target: WEE1 (Homo sapiens, UniProt P30291); test: Kinase selectivity assay WEE1; type: biochemical
[5] = biological target: CDK1/B (Homo sapiens, UniProt P06493); test: Kinase selectivity assay CDK1/B; type: biochemical
[6] = biological target: GSK3β (Homo sapiens, UniProt P49841); test: Kinase selectivity assay GSK3β; type: biochemical; conditions: read-out: GSK3β % inhibition at 20 μM
[7] = biological target: CDK6/D1 (Homo sapiens, UniProt Q00534); test: Kinase selectivity assay CDK6/D1; type: biochemical; conditions: 20 μM compound, ATP Km 30 μM
[8] = biological target: CDK2/A (Homo sapiens, UniProt P24941); test: Kinase selectivity assay CDK2/A; type: biochemical; conditions: read-out: CDK2/A % inhibition at 20 μM
[9] = biological target: GSK3α (Homo sapiens, UniProt P49840); test: Kinase selectivity assay GSK3α; type: biochemical; conditions: read-out: GSK3α % inhibition at 20 μM
[10] = biological target: CK1a1 (Homo sapiens, UniProt P48729); test: Kinase selectivity assay CK1a1; type: biochemical; conditions: read-out: CK1a1 % inhibition at 20 μM
[11] = biological target: DYRK1/DYRK1A (Homo sapiens, UniProt Q13627); test: Kinase selectivity assay DYRK1/DYRK1A; type: biochemical; conditions: read-out: DYRK1/DYRK1A % inhibition at 20 μM
[12] = biological target: CDK5/p25 (Homo sapiens, UniProt Q00535); test: ATP competitive binding assay; type: biochemical; conditions: IC50 at increasing ATP concentrations, Lineweaver-Burk plot
[13] = biological target: PKCα (Homo sapiens, UniProt P17252); test: Kinase selectivity assay PKCα; type: biochemical
[14] = biological target: full length hCDK2/E (Homo sapiens, UniProt P24941); test: γ-33P ATP filter binding assay, hCDK2/E
[15] = biological target: CDK4/D1 (Homo sapiens, UniProt P11802); test: Kinase selectivity assay CDK4/D1; type: biochemical; conditions: 20 μM compound, ATP Km 90 μM
[16] = biological target: PKA (Homo sapiens, UniProt P17612); test: Kinase selectivity assay PKA; type: biochemical
[17] = biological target: CDK2/E (Homo sapiens, UniProt P24941); test: Kinase selectivity assay CDK2/E; type: biochemical; conditions: read-out: CDK2/E % inhibition at 20 μM

Sequence of CDK5/p25 (Q00535 whole entry): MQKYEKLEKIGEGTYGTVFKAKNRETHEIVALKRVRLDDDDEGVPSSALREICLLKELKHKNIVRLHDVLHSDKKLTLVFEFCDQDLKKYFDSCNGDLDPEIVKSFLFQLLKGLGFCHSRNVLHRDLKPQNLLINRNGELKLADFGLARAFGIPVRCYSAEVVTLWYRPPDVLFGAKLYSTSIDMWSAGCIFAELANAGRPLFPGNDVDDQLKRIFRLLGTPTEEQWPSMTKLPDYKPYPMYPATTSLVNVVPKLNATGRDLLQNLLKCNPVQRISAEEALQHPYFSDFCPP
Sequence of CDK5/p25 (Q15078 99-307 partner limits assumed): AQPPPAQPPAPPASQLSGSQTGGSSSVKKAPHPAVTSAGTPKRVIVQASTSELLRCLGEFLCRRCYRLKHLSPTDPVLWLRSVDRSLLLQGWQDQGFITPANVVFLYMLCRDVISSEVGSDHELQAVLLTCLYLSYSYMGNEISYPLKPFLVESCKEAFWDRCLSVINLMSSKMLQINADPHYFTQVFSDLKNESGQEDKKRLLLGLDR
Sequence of full length hCDK5/p25 (Q00535 whole entry): as the sequence (Q00535 whole entry) above
Sequence of full length hCDK5/p25 (Q15078 99-307 partner limits assumed): as the sequence (Q15078 99-307 partner limits assumed) above
Sequence of WEE1 (P30291 whole entry): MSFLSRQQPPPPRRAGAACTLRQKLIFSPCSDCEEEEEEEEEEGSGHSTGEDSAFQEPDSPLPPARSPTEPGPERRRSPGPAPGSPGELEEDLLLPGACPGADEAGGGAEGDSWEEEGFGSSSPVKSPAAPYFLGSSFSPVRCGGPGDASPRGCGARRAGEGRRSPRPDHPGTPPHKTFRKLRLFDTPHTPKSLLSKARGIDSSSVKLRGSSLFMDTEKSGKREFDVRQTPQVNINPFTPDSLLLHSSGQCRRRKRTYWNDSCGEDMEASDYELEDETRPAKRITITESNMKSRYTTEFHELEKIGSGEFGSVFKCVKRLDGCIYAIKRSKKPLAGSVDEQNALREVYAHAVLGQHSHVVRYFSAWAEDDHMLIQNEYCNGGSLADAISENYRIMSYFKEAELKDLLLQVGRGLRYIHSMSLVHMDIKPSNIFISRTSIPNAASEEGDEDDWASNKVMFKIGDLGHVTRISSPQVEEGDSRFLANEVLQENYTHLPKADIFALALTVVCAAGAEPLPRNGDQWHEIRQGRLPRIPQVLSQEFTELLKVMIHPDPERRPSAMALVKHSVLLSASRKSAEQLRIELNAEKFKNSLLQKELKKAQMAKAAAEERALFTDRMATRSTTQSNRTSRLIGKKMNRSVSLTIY
Sequence of CK1a1 (P48729 whole entry): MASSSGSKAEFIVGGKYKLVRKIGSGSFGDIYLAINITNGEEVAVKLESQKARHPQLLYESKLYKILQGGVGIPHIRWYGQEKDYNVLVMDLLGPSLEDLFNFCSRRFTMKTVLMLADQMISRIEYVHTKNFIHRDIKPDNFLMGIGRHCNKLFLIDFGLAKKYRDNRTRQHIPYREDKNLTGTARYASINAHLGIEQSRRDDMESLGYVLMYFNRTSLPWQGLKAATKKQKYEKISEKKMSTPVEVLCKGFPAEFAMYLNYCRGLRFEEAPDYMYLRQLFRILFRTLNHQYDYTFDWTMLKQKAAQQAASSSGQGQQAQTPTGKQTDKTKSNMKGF
Sequence of CDK6/D1 (Q00534 whole entry): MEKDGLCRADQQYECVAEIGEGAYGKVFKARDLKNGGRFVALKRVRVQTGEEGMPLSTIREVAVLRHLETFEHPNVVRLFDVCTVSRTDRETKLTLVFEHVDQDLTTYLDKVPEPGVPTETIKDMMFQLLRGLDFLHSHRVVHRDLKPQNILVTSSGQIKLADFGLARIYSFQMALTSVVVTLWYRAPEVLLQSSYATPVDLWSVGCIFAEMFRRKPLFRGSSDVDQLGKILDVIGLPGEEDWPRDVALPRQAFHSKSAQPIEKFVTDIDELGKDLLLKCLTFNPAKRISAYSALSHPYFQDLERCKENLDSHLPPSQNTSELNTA
Sequence of CDK6/D1 (P24385 whole entry partner): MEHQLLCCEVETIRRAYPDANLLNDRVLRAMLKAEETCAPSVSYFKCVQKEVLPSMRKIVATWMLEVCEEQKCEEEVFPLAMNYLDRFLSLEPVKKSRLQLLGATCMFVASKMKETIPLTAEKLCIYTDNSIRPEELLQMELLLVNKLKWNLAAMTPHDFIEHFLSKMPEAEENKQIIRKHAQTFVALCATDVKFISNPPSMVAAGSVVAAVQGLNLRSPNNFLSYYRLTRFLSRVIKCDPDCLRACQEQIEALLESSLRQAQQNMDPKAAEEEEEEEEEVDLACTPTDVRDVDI
Sequence of CDK1/B (P06493 whole entry): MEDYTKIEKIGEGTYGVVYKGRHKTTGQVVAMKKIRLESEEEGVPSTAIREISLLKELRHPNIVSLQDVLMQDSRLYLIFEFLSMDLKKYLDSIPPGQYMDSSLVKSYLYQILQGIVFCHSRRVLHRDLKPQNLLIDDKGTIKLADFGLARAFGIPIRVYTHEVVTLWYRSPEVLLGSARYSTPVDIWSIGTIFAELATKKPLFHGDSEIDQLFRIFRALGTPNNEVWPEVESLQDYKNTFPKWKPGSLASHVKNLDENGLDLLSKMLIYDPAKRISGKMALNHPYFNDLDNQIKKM
Sequence of CDK1/B (P14635 whole entry partner): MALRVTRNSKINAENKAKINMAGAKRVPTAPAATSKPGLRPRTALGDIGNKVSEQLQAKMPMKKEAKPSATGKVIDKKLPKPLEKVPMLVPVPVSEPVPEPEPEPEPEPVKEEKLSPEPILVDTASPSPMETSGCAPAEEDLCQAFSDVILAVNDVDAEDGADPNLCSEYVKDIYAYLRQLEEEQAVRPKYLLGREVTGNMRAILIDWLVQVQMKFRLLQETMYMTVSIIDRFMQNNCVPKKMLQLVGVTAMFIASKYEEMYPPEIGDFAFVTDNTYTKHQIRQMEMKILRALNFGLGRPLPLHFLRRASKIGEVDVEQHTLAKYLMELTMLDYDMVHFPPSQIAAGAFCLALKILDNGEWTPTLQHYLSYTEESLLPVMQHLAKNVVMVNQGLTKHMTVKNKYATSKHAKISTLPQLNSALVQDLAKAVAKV
Sequence of GSK3β (P49841 whole entry): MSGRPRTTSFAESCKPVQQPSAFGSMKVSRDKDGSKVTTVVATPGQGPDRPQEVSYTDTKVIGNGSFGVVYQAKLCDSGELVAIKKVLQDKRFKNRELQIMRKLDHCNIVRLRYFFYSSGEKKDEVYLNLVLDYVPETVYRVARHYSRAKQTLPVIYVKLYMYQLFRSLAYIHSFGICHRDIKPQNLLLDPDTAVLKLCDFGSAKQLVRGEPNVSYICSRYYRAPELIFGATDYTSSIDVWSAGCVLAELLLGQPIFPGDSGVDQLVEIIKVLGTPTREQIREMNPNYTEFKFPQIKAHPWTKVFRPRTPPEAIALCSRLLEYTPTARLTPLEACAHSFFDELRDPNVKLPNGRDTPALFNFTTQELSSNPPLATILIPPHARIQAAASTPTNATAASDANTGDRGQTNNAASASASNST
Sequence of KDR/VEGFR2 (P35968 20-1356): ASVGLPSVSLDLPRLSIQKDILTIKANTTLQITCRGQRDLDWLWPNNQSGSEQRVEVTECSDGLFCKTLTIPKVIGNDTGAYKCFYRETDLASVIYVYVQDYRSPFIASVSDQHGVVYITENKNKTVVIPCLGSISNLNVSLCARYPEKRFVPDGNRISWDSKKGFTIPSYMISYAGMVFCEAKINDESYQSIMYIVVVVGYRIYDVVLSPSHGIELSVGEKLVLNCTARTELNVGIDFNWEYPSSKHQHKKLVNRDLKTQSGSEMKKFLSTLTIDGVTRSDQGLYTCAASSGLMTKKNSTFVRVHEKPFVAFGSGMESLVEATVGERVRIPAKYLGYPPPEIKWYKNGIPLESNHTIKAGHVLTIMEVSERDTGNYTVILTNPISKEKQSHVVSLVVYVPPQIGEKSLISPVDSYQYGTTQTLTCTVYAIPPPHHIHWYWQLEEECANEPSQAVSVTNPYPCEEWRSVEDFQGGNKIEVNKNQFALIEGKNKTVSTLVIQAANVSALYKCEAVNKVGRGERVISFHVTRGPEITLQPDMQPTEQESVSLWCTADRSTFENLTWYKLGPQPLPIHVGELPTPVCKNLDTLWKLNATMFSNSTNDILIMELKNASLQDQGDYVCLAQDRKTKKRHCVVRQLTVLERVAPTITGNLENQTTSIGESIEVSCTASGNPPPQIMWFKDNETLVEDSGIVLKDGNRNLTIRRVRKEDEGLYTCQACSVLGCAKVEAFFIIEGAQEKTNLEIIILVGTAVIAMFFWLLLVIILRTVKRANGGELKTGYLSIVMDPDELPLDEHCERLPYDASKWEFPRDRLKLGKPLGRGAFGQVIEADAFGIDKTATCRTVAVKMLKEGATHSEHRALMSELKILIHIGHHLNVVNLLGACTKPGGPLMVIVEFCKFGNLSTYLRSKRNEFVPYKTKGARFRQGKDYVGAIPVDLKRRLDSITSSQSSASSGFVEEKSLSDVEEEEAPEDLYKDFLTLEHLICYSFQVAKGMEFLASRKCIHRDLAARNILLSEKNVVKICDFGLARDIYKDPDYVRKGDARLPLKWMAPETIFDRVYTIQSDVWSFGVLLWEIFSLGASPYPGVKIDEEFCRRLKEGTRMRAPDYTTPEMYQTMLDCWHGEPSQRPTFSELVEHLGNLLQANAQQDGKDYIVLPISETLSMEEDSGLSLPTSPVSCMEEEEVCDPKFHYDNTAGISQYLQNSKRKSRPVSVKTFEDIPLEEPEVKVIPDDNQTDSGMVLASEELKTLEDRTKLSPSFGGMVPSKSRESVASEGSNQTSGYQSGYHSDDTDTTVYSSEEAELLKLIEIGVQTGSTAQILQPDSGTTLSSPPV

IC50 [1] [µM]	inhibition at 50 µM [1] [%]	inhibition at 20 µM [2] [%]	inhibition at 20 µM [3] [%]	inhibition at 20 µM [6] [%]	CDK6/D1 % inhibition at 20 μM [7]	inhibition at 20 µM [8] [%]	inhibition at 20 µM [9] [%]	inhibition at 20 µM [10] [%]	inhibition at 20 µM [11] [%]	mode of inhibition with respect to ATP [12]	CDK4/D1 % inhibition at 20 μM [15]	inhibition at 20 µM [17] [%]	Structure (SMILES)	also measured
4.3	70.6	88	7	81	No inhibition	50	79	41	23	ATP non-competitive inhibition	No inhibition	5	O=C(Nc1ccccc1C(=O)O)c1cc2c(=O)[nH]c3ccccc3c2s1 [Compound 25s, 2-(4-oxo-4,5-dihydrothieno[3,2-c]quinoline-2-carboxamido)benzoic acid]	WEE1 % inhibition at 20 μM ([4]; 20 μM compound, ATP Km 50 μM): No inhibition; CDK1/B % inhibition at 20 μM ([5]; 20 μM compound, ATP Km 5 μM): No inhibition; PKCα % inhibition at 20 μM ([13]; 20 μM compound, ATP Km 10 μM): No inhibition; CDK2/E inhibition @50μM ([14]; 50 μM compound, ATP (Km) 65 μM, Table 5): No inhibition; inhibition at 20 µM ([16]; read-out: PKA % inhibition at 20 μM): 89%
3.8	75.4	44	4	41	No inhibition	45	22	19	4	ATP non-competitive inhibition	No inhibition	6	O=C(Nc1ccccn1)c1cc2c(Cl)nc3ccccc3c2s1 [Compound 25w, 4-chloro-N-(pyridin-2-yl)thieno[3,2-c]quinoline-2-carboxamide]	inhibition at 20 µM ([4]; read-out: WEE1 % inhibition at 20 μM): 2%; inhibition at 20 µM ([5]; read-out: CDK1/B % inhibition at 20 μM): 35%; inhibition at 20 µM ([13]; read-out: PKCα % inhibition at 20 μM): 1%; inhibition at 50 µM ([14]; read-out: CDK2/E inhibition @50μM, 50 μM compound, ATP (Km) 65 μM, Table 5): 21.8%; PKA % inhibition at 20 μM ([16]; 20 μM compound, ATP Km 20 μM): No inhibition
